Source: patent US9546157B2, “Asymmetric piperidinyl-substituted ureas as medicines” (Helsinn Healthcare SA, priority 2014, dated 2017)
pEC50, pIC50: −log10 of the molar value.

Assays:
GHSR1a [1] = biological target: T1, GHSR1a (Homo sapiens, UniProt Q92847); test: Calcium FLIPR assay, GHSR-1a antagonism (reduction of ghrelin response); type: cell-based; conditions: HEK293/GHSR1a cells, ghrelin 10 nM
T1 construct: expressed in transfected cells; host or cells: HEK293
Procedure, shortened: (§1)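 Calcium dye-loaded HEK293/GHSR1a cells were monitored by FLIPR fluorescence for 2 min after additions at t=20 s. For antagonist mode, compound was co-added with ghrelin (10 nM) and scored by lowering the ghrelin signal. Agonist mode added compound alone; EC50 and IC50 came from dose-response data.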

GHSR1a [2] = biological target: T1, GHSR1a; test: Calcium FLIPR assay, GHSR-1a agonism; type: cell-based; conditions: HEK293/GHSR1a cells
Procedure, shortened: as §1

rat = test: Food intake in rat (PO, with or without ANA); type: in vivo; conditions: PO
[3] = Metabolic Stability (H = Human); type: in vitro ADME
C57BL/6J mice = test: Food intake test in mouse (GHSR1a antagonists); type: in vivo
Procedure, shortened: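 Male C57BL/6J mice (18-22 g) were fasted overnight (16 h before dosing), then randomized by body weight to vehicle or test agent (n=6 each). Cumulative food intake was measured at 1, 2, 4, 8 and 24 hrs post-dose as premeasured food minus uneaten food.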

[4] = Metabolic Stability (M = Mouse); type: in vitro ADME

T1 sequence (Q92847 whole entry): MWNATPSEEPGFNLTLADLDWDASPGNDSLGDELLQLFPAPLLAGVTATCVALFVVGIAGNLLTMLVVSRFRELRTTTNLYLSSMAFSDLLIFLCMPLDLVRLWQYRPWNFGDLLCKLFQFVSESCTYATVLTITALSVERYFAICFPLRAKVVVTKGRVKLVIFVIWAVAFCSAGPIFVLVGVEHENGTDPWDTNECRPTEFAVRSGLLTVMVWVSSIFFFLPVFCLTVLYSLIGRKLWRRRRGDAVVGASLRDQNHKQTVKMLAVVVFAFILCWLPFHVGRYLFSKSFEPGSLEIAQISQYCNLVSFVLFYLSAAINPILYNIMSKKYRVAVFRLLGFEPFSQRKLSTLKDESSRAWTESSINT

## CC(NC(=O)N(C)C1CCN(C)CC1)c1ccc(C#Cc2ccco2)c(Cl)c1Cl (stereo not shown) [Compound H0762, 3-(1-(2,3-dichloro-4-(furan-2-ylethynyl)phenyl)ethyl)-1-methyl-1-(1-methylpiperidin-4-yl)urea]
GHSR1a [1]
  pIC50: 8.30
GHSR1a [2]
  pEC50: < 4.52
rat
  Food intake in rat, result in words: NSEt
[3]
  Metabolic Stability H: High H High M
C57BL/6J mice; Mus musculus, ip, 1 h, i.p. 10 mg/kg
  inhibition in vivo at 10 mg/kg: 93%
C57BL/6J mice; PO, dose not given
  Mouse Food Intake, result in words: NSEt
[4]
  Metabolic Stability M: High H High M
